Converted amounts (≈) assume the structure as drawn.
Experiments:
Format in all cases: functional
Conditions in all cases: 336 h
[1] = system: Mycobacterium tuberculosis; assay: Antitubercular activity against pyrazinamide-resistant Mycobacterium tuberculosis after 14 days by turbidimetric assay
[2] = system: Mycobacterium tuberculosis; assay: Antitubercular activity against streptomycin-resistant Mycobacterium tuberculosis after 14 days by turbidimetric assay
[3] = system: Mycobacterium tuberculosis; assay: Antitubercular activity against isoniazid-resistant Mycobacterium tuberculosis after 14 days by turbidimetric assay
[4] = system: Mycobacterium tuberculosis; assay: Antitubercular activity against Beijing W multidrug resistant Mycobacterium tuberculosis after 14 days by turbidimetric assay
[5] = system: Mycobacterium tuberculosis; assay: Antitubercular activity against rifampicin-resistant Mycobacterium tuberculosis after 14 days by turbidimetric assay

Compound | MIC [1] | MIC [2] | MIC [3] | MIC [4] | MIC [5]
CCCC[C@H](CN(O)C=O)C(=O)N1CCC[C@H]1c1nc2ccccc2o1 | 0.25 µg/mL (≈ 0.696 µM) | 0.5 µg/mL (≈ 1.39 µM) | 0.06 µg/mL (≈ 0.167 µM) | 0.06 µg/mL (≈ 0.167 µM) | 0.6 µg/mL (≈ 1.67 µM)
CCCC[C@H](CN(O)C=O)C(=O)N1CCC[C@H]1c1nc2ccccc2[nH]1 | 0.25 µg/mL (≈ 0.697 µM) | 0.2 µg/mL (≈ 0.558 µM) | 0.03 µg/mL (≈ 0.0837 µM) | 0.03 µg/mL (≈ 0.0837 µM) | 0.125 µg/mL (≈ 0.349 µM)
CCCC[C@H](CN(O)C=O)C(=O)N1CCC[C@H]1C(=O)Nc1ccccn1 | 0.5 µg/mL (≈ 1.38 µM) | 0.5 µg/mL (≈ 1.38 µM) | 0.1 µg/mL (≈ 0.276 µM) | 0.125 µg/mL (≈ 0.345 µM) | 0.25 µg/mL (≈ 0.69 µM)
